From US20250263408A1 (Uniquest Pty Ltd, priority 2022, published 2025)

Assays:
[1] = tested on: Ba/F3-WT (wild type) cells; assay: Ba/F3 Proliferation Assay, Ba/F3-WT (wild type) cells with mIL-3 (Resazurin); format: cell-based; conditions: Mus musculus, BaF3, 48 h, Ba/F3-WT cells +mIL-3, 48-hour incubation
Protocol: (§1) Ba/F3-Syk and Ba/F3-WT (wild type) cells were maintained at ≤1×10^6 cell/mL in RPMI (Life Technologies) with 10% FBS at 37° C. and 5% CO2 for a maximum of four weeks. Ba/F3-WT additionally contained 2 ng/mL mIL-3 (R&D Systems) to induce cellular growth. Cells were counted and dispensed at 5000 cells/well using a Multidrop Liquid Dispenser in a volume of 45 μL into black 384-well TC treated plates (Greiner) and incubated for four hours in complete media (+mIL-3 for Ba/F3-WT). Compounds were serially diluted in 100% DMSO, prior to an intermediate dilution in RPMI media. 5 μL of compound (0.4% final DMSO) was added to the cells, followed by a 48-hour incubation period. 5 μL of Resazurin (60 μM final) was then added and cells were incubated at 37° C. for three hours, before fluorescence (λex530/λem585) was measured using an Ensight Multimode Plate Reader (Perkin Elmer).

[2] = target: T1, Ba/F3-Syk cells (Homo sapiens, UniProt P43405); assay: Ba/F3 Proliferation Assay, Ba/F3-Syk cells (Resazurin); format: cell-based; conditions: 48-hour incubation
T1 construct: fused on or other part: Possible but unprinted fusion partner: TEL (ETV6), the usual partner for Ba/F3 lines transformed by Syk; Nothing on a partner is printed
Protocol: as §1

| EC50 [1] | EC50 [2] | SMILES |
| --- | --- | --- |
| 2660 nM | 38.8 nM | CCn1ccc(-c2cc3ncccc3c(OC[C@@H]3CNCCO3)n2)c1 [Compound 6.1, 7-(1-ethyl-1H-pyrrol-3-yl)-5-{[(2S)-morpholin-2-yl]methoxy}-1,6-naphthyridine] |
| 2460 nM | 51.9 nM | c1cnc2cc(-c3ccn(C4CCC4)c3)nc(OC[C@@H]3CNCCO3)c2c1 [Compound 6.3, 7-(1-cyclobutyl-1H-pyrrol-3-yl)-5-{[(2S)-morpholin-2-yl]methoxy}-1,6-naphthyridine] |
| 2650 nM | 74.8 nM | c1cnc2cc(-c3ccn(CC4CC4)c3)nc(OC[C@@H]3CNCCO3)c2c1 [Compound 6.4, 7-[1-(cyclopropylmethyl)-1H-pyrrol-3-yl]-5-{[(2S)-morpholin-2-yl]methoxy}-1,6-naphthyridine] |
| 1920 nM | 81.9 nM | FC(F)Cn1cc(-c2cc3ncccc3c(OC[C@@H]3CNCCO3)n2)cn1 [Compound 6.6, 7-[1-(2,2-difluoroethyl)-1H-pyrazol-4-yl]-5-{[(2S)-morpholin-2-yl]methoxy}-1,6-naphthyridine] |
| 3400 nM | 113 nM | F/C=C\n1cc(-c2cc3ncccc3c(OC[C@@H]3CNCCO3)n2)cn1 [Compound 6.7, 7-{1-[(1Z)-2-fluoroethenyl]-1H-pyrazol-4-yl}-5-{[(2S)-morpholin-2-yl]methoxy}-1,6-naphthyridine] |
| 4880 nM | 181 nM | F/C=C/n1cc(-c2cc3ncccc3c(OC[C@@H]3CNCCO3)n2)cn1 [Compound 6.8, 7-{1-[(1E)-2-fluoroethenyl]-1H-pyrazol-4-yl}-5-{[(2S)-morpholin-2-yl]methoxy}-1,6-naphthyridine] |
| 994 nM | 66.7 nM | c1cnc2cc(-c3cnn(CC4CC4)c3)nc(OC[C@@H]3CNCCO3)c2c1 [Compound 6.12, 7-[1-(cyclopropylmethyl)-1H-pyrazol-4-yl]-5-{[(2S)-morpholin-2-yl]methoxy}-1,6-naphthyridine] |
| 1800 nM | 14.3 nM | CC1(C)CNC[C@@H](COc2nc(-c3ccn(C4CCC4)c3)cc3ncccc23)O1 [Compound 6.14, 7-(1-cyclobutyl-1H-pyrrol-3-yl)-5-{[(2S)-6,6-dimethylmorpholin-2-yl]methoxy}-1,6-naphthyridine] |
| 2340 nM | 20.3 nM | CC1(C)CNC[C@@H](COc2nc(-c3ccn(CC4CC4)c3)cc3ncccc23)O1 [Compound 6.15, 7-[1-(cyclopropylmethyl)-1H-pyrrol-3-yl]-5-{[(2S)-6,6-dimethylmorpholin-2-yl]methoxy}-1,6-naphthyridine] |
| 2400 nM | 79.9 nM | FC1(F)CC1n1ccc(-c2cc3ncccc3c(OC[C@@H]3CNCCO3)n2)c1 (stereo partly drawn) [Compound 6.17, 7-[1-(2,2-difluorocyclopropyl)-1H-pyrrol-3-yl]-5-{[(2S)-morpholin-2-yl]methoxy}-1,6-naphthyridine] |
| 3290 nM | 36.2 nM | CC1(C)CNC[C@@H](COc2nc(-c3ccn(C4CC4(F)F)c3)cc3ncccc23)O1 (stereo partly drawn) [Compound 6.18, 7-[1-(2,2-difluorocyclopropyl)-1H-pyrrol-3-yl]-5-{[(2S)-6,6-dimethylmorpholin-2-yl]methoxy}-1,6-naphthyridine] |

More lines, now with the values behind:

| SMILES | EC50 [1] | EC50 [2] |
| --- | --- | --- |
| CC1(C)CNC[C@@H](COc2nc(-c3cnn(C4(C)CC4)c3)cc3ncccc23)O1 [Compound 2.88, 5-{[(2S)-6,6-dimethylmorpholin-2-yl]methoxy}-7-[1-(1-methylcyclopropyl)-1H-pyrazol-4-yl]-1,6-naphthyridine] | 1560 nM | 17.6 nM |
| CC1(C)CNC[C@@H](COc2nc(-c3cnn(C4(C)CCOC4)c3)cc3ncccc23)O1 (stereo partly drawn) [Compound 2.89] | 2730 nM | 21.7 nM |
| CC[C@H]1CNC[C@@H](COc2nc(-c3cnn(C(C)(C)C)c3)cc3ncccc23)O1 [Compound 2.92, 7-(1-tert-butyl-1H-pyrazol-4-yl)-5-{[(2S,6S)-6-ethylmorpholin-2-yl]methoxy}-1,6-naphthyridine] | 599 nM | 29 nM |
| CC[C@@H]1CNC[C@@H](COc2nc(-c3cnn(C(C)(C)C)c3)cc3ncccc23)O1 [Compound 2.93, 7-(1-tert-butyl-1H-pyrazol-4-yl)-5-{[(2S,6R)-6-ethylmorpholin-2-yl]methoxy}-1,6-naphthyridine] | 1240 nM | 27.7 nM |
| CC(C)n1cc(-c2cc3ncccc3c(OC[C@H]3OCCN[C@H]3C)n2)cn1 [Compound 2.96, 5-{[(2S,3S)-3-methylmorpholin-2-yl]methoxy}-7-[1-(propan-2-yl)-1H-pyrazol-4-yl]-1,6-naphthyridine] | 724 nM | 20.1 nM |
| O=C1CCn2cc(-c3cc(OC[C@@H]4CNCCO4)c4cccnc4c3)cc21 [Compound 3, 6-(5-{[(2S)-morpholin-2-yl]methoxy}quinolin-7-yl)-2,3-dihydro-1H-pyrrolizin-1-one] | 1950 nM | 162 nM |
| c1cnc2cc(-c3cnn(C4CC4)c3)cc(OC[C@@H]3CNCCO3)c2c1 [Compound 3.3, 7-(1-cyclopropyl-1H-pyrazol-4-yl)-5-{[(2S)-morpholin-2-yl]methoxy} quinoline] | 2590 nM | 179 nM |
| c1cnc2cc(-c3cnn(C4CCC4)c3)cc(OC[C@@H]3CNCCO3)c2c1 [Compound 3.5, 7-(1-cyclobutyl-1H-pyrazol-4-yl)-5-{[(2S)-morpholin-2-yl]methoxy}quinoline] | 902 nM | 61.8 nM |
| Cc1cc(-c2cc(OC[C@@H]3CNCCO3)c3cccnc3c2)cs1 [Compound 3.7, 7-(5-methylthiophen-3-yl)-5-{[(2S)-morpholin-2-yl]methoxy}quinoline] | 3730 nM | 134 nM |
| c1cnc2cc(-c3cc[nH]c3)cc(OC[C@@H]3CNCCO3)c2c1 [Compound 3.9, 5-{[(2S)-morpholin-2-yl]methoxy}-7-(1H-pyrrol-3-yl)quinoline] | > 10000 nM | 167 nM |
| CC1(C)CNC[C@@H](COc2cc(-c3cnn(C(F)F)c3)cc3ncccc23)O1 [Compound 3.11, 7-[1-(difluoromethyl)-1H-pyrazol-4-yl]-5-{[(2S)-6,6-dimethylmorpholin-2-yl]methoxy}quinoline] | 2140 nM | 163 nM |
| CC1(C)CNC[C@@H](COc2cc(-c3cnn(CC(F)F)c3)cc3ncccc23)O1 [Compound 3.12, 7-[1-(2,2-difluoroethyl)-1H-pyrazol-4-yl]-5-{[(2S)-6,6-dimethylmorpholin-2-yl]methoxy}quinoline] | 1680 nM | 87 nM |
| CC1(C)CNC[C@@H](COc2cc(-c3cnn(C4CCC4)c3)cc3ncccc23)O1 [Compound 3.13, 7-(1-cyclobutyl-1H-pyrazol-4-yl)-5-{[(2S)-6,6-dimethylmorpholin-2-yl]methoxy}quinoline] | 814 nM | 35.8 nM |
| CC1(C)CNC[C@@H](COc2cc(-c3ccn(C(C)(C)C)c3)cc3ncccc23)O1 [Compound 3.16, 7-(1-tert-butyl-1H-pyrrol-3-yl)-5-{[(28)-6,6-dimethylmorpholin-2-yl]methoxy}quinoline] | 6170 nM | 11.9 nM |
| CC(C)(C)n1ccc(-c2cc(OC[C@@H]3CNCC4(CC4)O3)c3cccnc3c2)c1 [Compound 3.18, 7-(1-tert-butyl-1H-pyrrol-3-yl)-5-{[(5S)-4-oxa-7-azaspiro[2.5]octan-5-yl]methoxy}quinoline] | 5420 nM | 23.1 nM |
| CC(C)(C)n1cc(-c2cc(OC[C@@H]3CNCC4(CC4)O3)c3cccnc3c2)cn1 [Compound 3.20, 7-(1-tert-butyl-1H-pyrazol-4-yl)-5-{[(5S)-4-oxa-7-azaspiro[2.5]octan-5-yl]methoxy}quinoline] | 1960 nM | 35.5 nM |
| CC(C)n1cc(-c2cc(OC[C@@H]3CNCC4(CC4)O3)c3cccnc3c2)cn1 [Compound 3.21, 5-{[(SS)-4-oxa-7-azaspiro[2.5]octan-5-yl]methoxy}-7-[1-(propan-2-yl)-1H-pyrazol-4-yl]quinoline] | 614 nM | 13.1 nM |
| Cn1ccc(-c2cc(OC[C@@H]3CNCCCO3)c3cccnc3c2)c1 [Compound 3.22, 7-(1-methyl-1H-pyrrol-3-yl)-5-{[(2S)-1,4-oxazepan-2-yl]methoxy}quinoline] | 9680 nM | 99 nM |
| c1cnc2cc(-c3cc4n(c3)CCC4)cc(OC[C@@H]3CNCCO3)c2c1 [Compound 4, 7-(2,3-dihydro-1H-pyrrolizin-6-yl)-5-{[(2S)-morpholin-2-yl]methoxy}quinoline] | 7210 nM | 87.7 nM |
| Cn1cc(-c2cc(OC[C@@H]3CNCCO3)c3cncnc3c2)cn1 [Compound 4.1, 7-(1-methyl-1H-pyrazol-4-yl)-5-{[(2S)-morpholin-2-yl]methoxy} quinazoline] | 7430 nM | 2320 nM |
| CC1(C)CNC[C@@H](COc2cc(-c3cnn(C(C)(C)C)c3)cc3ncncc23)O1 [Compound 4.2, 7-(1-tert-butyl-1H-pyrazol-4-yl)-5-{[(2S)-6,6-dimethyl-morpholin-2-yl]methoxy} quinazoline] | > 10000 nM | 171 nM |
| Cn1ccc(-c2cc(OC[C@@H]3CNCCO3)c3cncnc3c2)c1 [Compound 4.3, 7-(1-methyl-1H-pyrrol-3-yl)-5-{[(2S)-morpholin-2-yl]methoxy} quinazoline] | 5010 nM | 586 nM |
